Measurements from patent US8575338B2, “Pyrimidine, pyridine and triazine derivatives as maxi-K channel openers” (Mitsubishi Tanabe Pharma Corporation, priority 2008, dated 2013).

Target: T1, human BKαβ1 channels (Homo sapiens, UniProt Q12791)
T1 construct: expressed in transfected cells; host or cells: CHO cells (G418 and hygromycin selection)
Test: BK current in CHO cells expressing human BKαβ1 (PatchXpress whole-cell patch clamp), EC100
Type: cell-based
Details: drug concentration causing 100% increase of BK current
Method: Methods for Testing Compounds on Human BKαβ1 Channels Expressed Cho Cells
CHO cells expressing human BKαβ1 were cultured in T75 or 6 well cell culture cluster. Medium: DMEM/F12+10% FBS+0.5 mg/mL G418/genetecin+0.1 mg/mL Hygromycin. Split cells every 3-4 days at 80-90% confluence. Use cells for experiments 60-72 hrs after re-passage and at ˜90% confluence.
Trypsin solution (0.05% Trypsin+0.1% EDTA), Ca^2+ free PBS and culture medium were warmed to 37° C. Inspect the T75 flask for cell confluence. Remove culture medium and add warm Ca^2+ free PBS to wash cells. Remove Ca^2+ free PBS and add warm Trypsin solution. Put the T75 flask back to 37° C. incubator for about 4.5 minutes. Stop Trypsin activity by adding culture medium. Spin the cells down. Suspend cells in 120-160 μL external solution for BK current recording and use the cells as soon as possible.
PatchXpress Sealchip 16 electrodes (AVIVA Biosciences) and PatchXpress 7000A (Axon Instruments, Inc) were used for BK current recording. Flat bottom 1.5 mL glass vial (HiPep Laboratories) were used for containing external solutions (±compounds). The holes in the sealchip (equivalent to patch electrode) had resistance about 1.5 MΩ. Cell membrane capacitance was compensated and access resistance was also compensated by 40%. Voltage-clamp protocol: Holding voltage=0 mV. Record BK current during 200-ms steps between +80 to +120 mV in 10 mV increments and 2 sec inter-pulse interval. On-line digital leak subtraction was performed by a P/−4 procedure. After whole-cell configuration was established, 2 minute was used to optimize access resistance. Then the chamber was washed with control bath solution for 1 minute to remove excessive cells. Control bath solution was added with robotic pipette and control BK current was recorded after 1 minute equilibrium time. For each drug concentration, 45 μL drug solution was added three times with “suction before adding” mode which left old solution. For each drug addition, 1 minute equilibrium time was given. BK current was measured at each drug concentrations (usually within 3.5 minutes after first drug addition). Calculate % change of BK current at the voltage step when the control BK current first exceeding 200 pA. If the control BK current was less than 200 pA at 120 mV, the cell was not used. % changes were calculated as 100*(Id−Ic)/Ic, where Id was the current amplitude in the presence of drug and Ic was the control current amplitude.
EC100 was defined as the drug concentration causing 100% increase of BK current calculated by the method described above. EC100 was determined by the data points just below and above 100%. % Increase of BK current was plotted against log [drug concentration]. A straight line connected two data points flanking 100%. From this straight line, the concentration corresponding to 100% increase of BK current was determined as EC100.
Compounds were dissolved in DMSO to make 10 mM stock solutions. Subsequent dilutions were made with external solution. The testing drug concentrations were 0.1, 0.3, 1, 3 and 10 μM depending on the potency of compounds. The highest DMSO concentration was 0.1%. External solution (in mM): 140 NaCl, 4 KCl, 1 MgCl2, 2 CaCl2, 10 Glucose, 10 HEPES; pH=7.4 with NaOH. Internal solution (in mM): 140 KCl, 5 EGTA, 1 MgCl2, 5 MgATP, 0.2 CaCl2, 5 HEPES; pH=7.2 with KOH.

T1 sequence (Q12791 whole entry): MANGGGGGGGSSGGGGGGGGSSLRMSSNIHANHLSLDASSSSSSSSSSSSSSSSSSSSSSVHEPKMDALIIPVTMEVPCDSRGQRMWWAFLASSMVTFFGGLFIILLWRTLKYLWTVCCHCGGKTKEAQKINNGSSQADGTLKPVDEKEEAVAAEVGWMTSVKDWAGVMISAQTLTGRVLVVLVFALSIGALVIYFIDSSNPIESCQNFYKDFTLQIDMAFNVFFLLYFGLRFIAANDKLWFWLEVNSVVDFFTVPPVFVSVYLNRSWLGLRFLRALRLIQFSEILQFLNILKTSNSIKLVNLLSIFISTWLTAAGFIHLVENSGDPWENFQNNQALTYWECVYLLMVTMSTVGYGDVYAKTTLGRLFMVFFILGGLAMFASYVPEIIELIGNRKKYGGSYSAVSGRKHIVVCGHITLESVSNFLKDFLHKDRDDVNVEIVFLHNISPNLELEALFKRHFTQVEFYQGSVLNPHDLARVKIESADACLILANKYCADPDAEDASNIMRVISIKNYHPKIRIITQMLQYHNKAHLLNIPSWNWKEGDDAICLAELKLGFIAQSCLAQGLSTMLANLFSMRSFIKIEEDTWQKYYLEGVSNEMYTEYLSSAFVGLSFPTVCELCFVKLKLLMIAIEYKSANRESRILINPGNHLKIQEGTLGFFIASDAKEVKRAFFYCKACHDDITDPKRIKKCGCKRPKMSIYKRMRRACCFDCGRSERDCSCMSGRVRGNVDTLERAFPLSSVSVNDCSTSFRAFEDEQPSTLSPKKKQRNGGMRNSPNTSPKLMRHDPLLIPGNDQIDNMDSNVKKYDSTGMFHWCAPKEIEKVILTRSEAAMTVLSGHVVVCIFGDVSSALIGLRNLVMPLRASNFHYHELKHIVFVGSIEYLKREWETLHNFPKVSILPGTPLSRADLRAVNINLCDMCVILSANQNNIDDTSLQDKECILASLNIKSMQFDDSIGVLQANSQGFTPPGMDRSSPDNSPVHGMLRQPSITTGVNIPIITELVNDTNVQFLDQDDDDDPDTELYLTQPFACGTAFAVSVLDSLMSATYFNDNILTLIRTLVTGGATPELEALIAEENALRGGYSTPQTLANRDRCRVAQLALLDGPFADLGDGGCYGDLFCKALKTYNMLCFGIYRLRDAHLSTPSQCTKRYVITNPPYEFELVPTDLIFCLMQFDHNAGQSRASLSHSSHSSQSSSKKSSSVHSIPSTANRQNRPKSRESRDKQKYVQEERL
T1 sequence (Q16558 whole entry partner): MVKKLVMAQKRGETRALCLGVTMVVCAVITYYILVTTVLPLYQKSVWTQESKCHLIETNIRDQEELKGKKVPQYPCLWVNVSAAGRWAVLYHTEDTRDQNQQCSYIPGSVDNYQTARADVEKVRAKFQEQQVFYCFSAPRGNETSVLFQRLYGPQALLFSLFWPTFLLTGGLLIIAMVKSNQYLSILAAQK

Row | Compound | EC100
1 | COC[C@@H]1CCCN1c1nc(OC(C)(C)C(=O)[O-])nc(-c2ccc(Cl)c(F)c2)n1.[Na+] [Example 6] | 1.61 µM
2 | CC(C)(Oc1cc(N2CCC(C(C)(C)O)CC2)nc(-c2ccc(Cl)c(F)c2)n1)C(=O)[O-].[Na+] [Example 16] | 1.91 µM
3 | COCC1CCN(c2cc(OC(C)(C)C(=O)[O-])nc(-c3ccc(Cl)c(F)c3)n2)CC1.[Na+] [Example 17] | 2.47 µM
4 | CCC(CC)(Oc1cc(N2CCC(OC)CC2)nc(-c2ccc(Cl)c(F)c2)n1)C(=O)[O-].[Na+] [Example 33] | 1.75 µM
5 | COC[C@@H]1CCCN1c1cc(OC2(C(=O)[O-])CC2)nc(-c2cccc(C(F)(F)F)c2)n1.[Na+] [Example 62] | 1.5 µM
6 | COC[C@@H]1CCCN1c1cc(OC2(C(=O)[O-])CC2)nc(-c2ccc(C(F)(F)F)cc2)n1.[Na+] [Example 63] | 1.28 µM
7 | CCOc1cccc(-c2nc(OC3(C(=O)[O-])CC3)cc(N3CCC[C@H]3COC)n2)c1.[Na+] [Example 65] | 1.43 µM
8 | COC[C@@H]1CCCN1c1cc(OC2(C(=O)[O-])CC2)nc(-c2ccc(Cl)s2)n1.[Na+] [Example 67] | 1.92 µM
9 | COCC1CCN(c2cc(OC3(C(=O)[O-])CC3)nc(-c3ccc(Cl)s3)n2)CC1.[Na+] [Example 69] | 2.56 µM
10 | CCCOC1CCN(c2cc(OC3(C(=O)[O-])CC3)nc(-c3ccc(F)cc3)n2)CC1.[Na+] [Example 78] | 1.41 µM
11 | COc1ccc(C(C)=O)cc1-c1cc(OC2(C(=O)[O-])CC2)nc(-c2ccc(Cl)c(F)c2)n1.[Na+] [Example 199] | 1.14 µM
12 | COc1cccc(-c2cc(OC(C)(C)C(=O)[O-])nc(-c3ccc(Cl)c(F)c3)c2)c1.[Na+] [Example 206] | 0.68 µM
13 | COc1ccccc1-c1nc(OC(C)(C)C(=O)[O-])nc(-c2ccc(Cl)c(F)c2)n1.[Na+] [Example 207] | 1.91 µM
14 | COc1cc(F)ccc1-c1cc(OC2(C(=O)[O-])CC2)nc(-c2ccc(F)c(F)c2)n1.[Na+] [Example 208] | 0.38 µM
15 | COCCOc1cc(F)ccc1-c1cc(OC2(C(=O)[O-])CC2)nc(-c2ccc(Cl)c(F)c2)n1.[Na+] [Example 209] | 0.27 µM
16 | CC(C)(Oc1cc(-c2ccc(F)cc2)nc(-c2ccc(Cl)c(F)c2)n1)C(=O)[O-].[Na+] [Example 474] | 0.36 µM
17 | COCc1ccc(-c2cc(OC(C)(C)C(=O)[O-])nc(-c3ccc(Cl)c(F)c3)n2)cc1.[Na+] [Example 485] | 1.83 µM
18 | COc1nc(-c2cc(OC(C)(C)C(=O)[O-])nc(-c3ccc(Cl)c(F)c3)n2)cs1.[Na+] [Example 506] | 1.38 µM
19 | COCCN(CC(=O)O)c1cc(-c2ccc(F)cc2)nc(-c2ccc(Cl)c(F)c2)n1 [Example 646] | 1.23 µM
20 | O=C(O)C1(Nc2cc(-c3ccc(F)cc3)nc(-c3ccc(Cl)c(F)c3)n2)CC1 [Example 706] | 0.16 µM
21 | CCOc1cc(F)ccc1-c1cc(OC2(C(=O)O)CC2)nc(-c2ccc(F)cc2)n1 [Example 709] | 0.12 µM
22 | CC(C)Oc1cc(F)ccc1-c1cc(OC2(C(=O)O)CC2)nc(-c2ccc(F)cc2)n1 [Example 710] | 0.14 µM
23 | CCc1ccc(F)cc1-c1cc(OC2(C(=O)O)CC2)nc(-c2ccc(F)cc2)n1 [Example 892] | 0.55 µM

Further lines, results first:

Row | EC100 | Compound
24 | 0.59 µM | COC[C@@H]1CCCN1c1cc(OC2(C(=O)[O-])CC2)nc(-c2ccc(Cl)c(F)c2)n1.[Na+] [Example 36]
25 | 0.69 µM | COC[C@H]1CCCN1c1cc(OC2(C(=O)[O-])CC2)nc(-c2ccc(Cl)c(F)c2)n1.[Na+] [Example 37]
26 | 0.25 µM | COCC1CCN(c2cc(OC3(C(=O)[O-])CC3)nc(-c3ccc(Cl)c(F)c3)n2)CC1.[Na+] [Example 39]
27 | 0.33 µM | O=C([O-])C1(Oc2cc(NC3CCCC3)nc(-c3ccc(Cl)c(F)c3)n2)CC1.[Na+] [Example 47]
28 | 1.05 µM | CCO[C@H]1CCCN(c2cc(OC3(C(=O)[O-])CC3)nc(-c3ccc(Cl)c(F)c3)n2)C1.[Na+] [Example 50]
29 | 1.09 µM | CCOC1CCN(c2cc(OC3(C(=O)[O-])CC3)nc(-c3ccc(Cl)c(F)c3)n2)C1.[Na+] (stereo not drawn) [Example 51]
30 | 1.31 µM | COC[C@@H]1CCCN1c1cc(OC2(C(=O)[O-])CCCC2)nc(-c2ccc(Cl)c(F)c2)n1.[Na+] [Example 54]
31 | 0.14 µM | O=C([O-])C1(Oc2cc(-c3ccc(F)cc3)nc(-c3ccc(Cl)c(F)c3)n2)CC1.[Na+] [Example 512]
32 | 0.1 µM | COc1ccc(-c2cc(OC3(C(=O)[O-])CC3)nc(-c3ccc(Cl)c(F)c3)n2)cc1F.[Na+] [Example 518]
33 | 0.12 µM | COc1cc(F)cc(-c2cc(OC3(C(=O)[O-])CC3)nc(-c3ccc(Cl)c(F)c3)n2)c1.[Na+] [Example 519]
34 | 0.32 µM | COc1ccc(F)cc1-c1cc(OC2(C(=O)[O-])CC2)nc(-c2ccc(Cl)c(F)c2)n1.[Na+] [Example 520]
35 | 0.39 µM | COc1cc(-c2cc(OC3(C(=O)[O-])CC3)nc(-c3ccc(Cl)c(F)c3)n2)ccc1F.[Na+] [Example 522]
36 | 0.36 µM | COCc1cccc(-c2cc(OC3(C(=O)[O-])CC3)nc(-c3ccc(Cl)c(F)c3)n2)c1.[Na+] [Example 526]
37 | 0.12 µM | O=C([O-])C1(Oc2cc(-c3ccc4c(c3)OCCO4)nc(-c3ccc(Cl)c(F)c3)n2)CC1.[Na+] [Example 529]
38 | 0.5 µM | CCOc1ncccc1-c1cc(OC2(C(=O)[O-])CC2)nc(-c2ccc(Cl)c(F)c2)n1.[Na+] [Example 533]
39 | 0.29 µM | N#Cc1cccc(-c2cc(OC3(C(=O)[O-])CC3)nc(-c3ccc(Cl)c(F)c3)n2)c1.[Na+] [Example 548]

Row | EC100 | Compound
40 | 0.33 µM | N#Cc1ccc(-c2cc(OC3(C(=O)[O-])CC3)nc(-c3ccc(Cl)c(F)c3)n2)cc1.[Na+] [Example 549]
41 | 0.2 µM | O=C([O-])C1(Oc2cc(-c3ccccc3O)nc(-c3ccc(Cl)c(F)c3)n2)CC1.[Na+] [Example 552]
42 | 0.1 µM | CCOc1cccc(-c2cc(OC3(C(=O)[O-])CC3)nc(-c3ccc(Cl)c(F)c3)n2)c1.[Na+] [Example 553]
43 | 0.3 µM | O=C([O-])C1(Oc2cc(-c3cccc(C(F)(F)F)c3)nc(-c3ccc(Cl)c(F)c3)n2)CC1.[Na+] [Example 555]
44 | 0.03 µM | O=C([O-])C1(Oc2cc(-c3cccc(C(F)(F)F)c3)nc(-c3ccc(Cl)c(F)c3)n2)CC1.[Na+] [Example 556]
45 | 0.04 µM | O=C([O-])C1(Oc2cc(-c3ccc(F)cc3O)nc(-c3ccc(Cl)c(F)c3)n2)CC1.[Na+] [Example 558]
46 | 0.36 µM | O=C([O-])C1(Oc2cc(-c3nccs3)nc(-c3ccc(Cl)c(F)c3)n2)CC1.[Na+] [Example 559]
47 | 0.01 µM | O=C([O-])C1(Oc2cc(-c3cncc(Cl)c3)nc(-c3ccc(Cl)c(F)c3)n2)CC1.[Na+] [Example 563]
48 | 0.56 µM | COc1ncccc1-c1cc(OC2(C(=O)[O-])CCCC2)nc(-c2ccc(Cl)c(F)c2)n1.[Na+] [Example 566]
49 | 2.15 µM | O=C([O-])C1(Oc2cc(-c3nccs3)nc(-c3ccc(Cl)c(F)c3)n2)CCCC1.[Na+] [Example 570]
50 | 1.07 µM | COc1ccc(F)c(-c2cc(OC3(C(=O)[O-])CCOCC3)nc(-c3ccc(Cl)c(F)c3)n2)c1.[Na+] [Example 572]
51 | 0.05 µM | COc1cc(F)cc(-c2cc(OC3(C(=O)[O-])CCOCC3)nc(-c3ccc(Cl)c(F)c3)n2)c1.[Na+] [Example 573]
52 | 0.12 µM | COc1cc(F)ccc1-c1cc(OC2(C(=O)[O-])CC2)nc(-c2cccc(F)c2)n1.[Na+] [Example 613]
53 | 1.29 µM | O=C([O-])C1(Oc2cc(N3CCN(c4ncccn4)CC3)nc(-c3ccc(Cl)c(F)c3)n2)CC1.[Na+] [Example 664]
54 | 0.48 µM | O=C(O)C1(Oc2cc(-c3ccc(C(F)(F)F)nc3)nc(-c3ccc(Cl)c(F)c3)n2)CC1 [Example 888]
